Experimental data: patent publication US20120015399A1, “FLUORESCENT SOLVATOCHROMIC PIGMENT” (National University Corporation Hokkaido University, priority 2009, published 2012)

Columns and labels:
[1] = test system: macrophage cells (RAW264); assay: Staining of macrophage cells, confocal laser fluorescence microscopy; format: cell-based; conditions: stain solution in calf serum/D-MEM 1:9, fifteen minutes, 37° C., argon laser 488 nm, FIG. 9
Method: In the present Example, macrophage cells were stained using the pyridinium derivatives shown in Table 1 and the differences in cell staining were compared in order to investigate the effects of the alkyl chain lengths in R^7 and R^8.
Several micrograms of each pyridinium derivative (Compounds 10 and 21 to 23) were added to 10 milliliters of a liquid medium obtained by mixing calf serum and D-MEM base medium in a 1:9 ratio. The mixtures were left standing in a refrigerator overnight to dissolve the solids. 5 milliliters of the supernatant solutions were removed the next day and were used as cell staining solutions after filtering the solutions through sterilizing membrane filters with a pore diameter of […] p.m.
The macrophage cells (RAW264 of ATCC Co., Ltd.) were floated in HydroCell dishes manufactured by Cell Seed Co., Ltd. using a liquid culture obtained by mixing calf serum and D-MEM base medium in a 1:9 ratio.
The media were removed from the glass bottom dishes on which the RAW264 cells were supported, and 0.2 ml of each stain solution was added. The cells were stained by leaving the dish standing for fifteen minutes in a CO2 incubator at 37° C. The stain solutions were subsequently removed, and the media were exchanged three times using a liquid medium obtained by mixing calf serum and D-MEM base medium in 1:9 ratio. […] The results are shown in terms of fluorescence microscopic images (FIG. 9).

[2] = test system: human colon cancer cell T84; assay: Staining of cultured cells, confocal laser fluorescence microscopy; format: cell-based
Method: In the present Example, Compound 7 was introduced into cultured human colon cancer cell T84 and its image was observed using a fluorescence microscope.
Human colon cancer cell T84 culture (cell stock-microbial stock-gene bank (ATCC) number CCL-248, supplied by Summit Pharmaceuticals International Corporation) in a sub-confluent state that had been cultured (37° C., 5% CO2) for two to four days in a glass bottom dish (35 mm, Matsunami Glass Ind., Ltd.) was washed with phosphoric acid buffered physiological saline solution. One hundred microliters of a DMSO solution of 2×10^−5 M of Compound 7 was added dropwise near the cells, and a reaction was allowed to occur for five minutes at room temperature. The cells were washed again using phosphoric acid buffered physiological saline solution and were immediately exposed to an argon laser (488 nm) to reach an excited state in the phosphoric acid buffered physiological saline solution. The response was observed using a confocal laser microscope (LSM510META manufactured by Carl Zeiss).
In the present Comparative Example, the compound shown below described in Reference 3 (Japanese Patent Application Public Disclosure No. 2008-291210) was used in place of Compound 7, and the fluorescence microscope images of the cultured human colon cancer cell T84 were examined in the manner described in Example 5.

[3] = Fluorescence emission in water in the presence of additives (lecithin, β-cyclodextrin, Triton X-100, CTAB, SDS); format: physicochemical; conditions: additives in deionized water, excitation 488 nm, FIG. 5
Method: After adding 5 milliliters of deionized water, the mixtures were sonicated with ultrasound for 20 seconds. The supernatant solution was irradiated with light at 488 nm, and the light emitted was measured using a fluorescence spectrophotometer (F-4500). […] After adding 5 milliliters of deionized water, the mixtures were sonicated with ultrasound for 20 seconds. The supernatant solution was irradiated with light at 450 nm, and the light emitted was measured using a fluorescence spectrophotometer (F-4500).

[4] = test system: human fetus kidney-derived HEK293 cells; assay: Staining of HEK293 cells, location of dye and emitted light wavelength; format: cell-based; conditions: stain solution in calf serum/D-MEM 1:9, fifteen minutes, 37° C., argon laser 488 nm, FIG. 10
Method: In the present Example, human fetus kidney-derived HEK293 cells were stained using Compound 10, and the location of the dye and emitted light wavelength were examined.
Several micrograms of Compound 10 was added to 10 milliliters of a liquid medium obtained by mixing calf serum and D-MEM base medium in a 1:9 ratio. The mixture was left standing in a refrigerator overnight to dissolve the solids. 5 milliliters of the supernatant solution was removed the next day and was used as a cell staining solution after filtering the solution through a sterilizing membrane filter with a pore diameter of […]
The human fetus kidney-derived cells HEK293 (Riken Cell Bank) were cultured in a five milliliter culture flask using a liquid culture obtained by mixing calf serum and D-MEM base medium in a 1:9 ratio. The solution was used to inoculate a glass bottom dish.
The medium was removed from the glass bottom dish on which the HEK293 cells were supported, and 0.2 ml of the stain solution was added. The cells were stained by leaving the dish standing for fifteen minutes in a CO2 incubator at 37° C. The stain solution was subsequently removed, and the medium was exchanged three times using a liquid medium obtained by mixing calf serum and D-MEM base medium in a 1:9 ratio.

[5] = Absorption spectra of thiophene derivatives in solvents of different polarity; format: physicochemical; conditions: for Molar absorption coefficient: at maximum absorption wavelength
Method: (§1) In the present Example, the thiophene derivatives (Compounds 3 to 6) obtained in Synthesis Examples 1 and 2 were dissolved in a variety of solvents with different polarity, and the absorption and the fluorescent spectra were measured.
Now, the solvent polarity ET(30) (kcal/mole) was obtained by dissolving the betaine dye of the following formula that is a light absorbing solvatochromic dye in each solvent and incorporating the maximum absorption wavelength, λ (nm), into the equation ET(30)=28591/λ.
The thiophene derivative solutions were prepared by using a standard solvent for spectral measurement (Wako Pure Chemical Industries, Ltd.) in concentrations of from […] to 1.2×10^−5M, and absorptions were measured with a visible/ultraviolet spectrophotometer (V-560 UV/VIS Spectrophotometer manufactured by JASCO Corporation). The maximum absorption wavelength (nm) is shown in Table 2, and the molar absorption coefficient (mol^−1cm^−1) at the maximum absorption wavelength is shown in Table 3. The numbers in the tables indicate compound numbers.

[6] = Fluorescence spectra of thiophene derivatives in solvents of different polarity; format: physicochemical
Method: as §1
Next, fluorescence spectra of the thiophene derivatives were measured. The fluorescence spectra were measured using the same samples used for the absorption spectra and using a fluorescence spectrophotometer (F-4500 manufactured by Hitachi Ltd.)
The numbers in the table indicate compound numbers.

[7] = Fluorescence colour in aqueous synthetic detergent solutions of different pH; format: physicochemical; conditions: blue light 450 nm
Method: In the present Example, Compound 6 was dissolved in aqueous synthetic detergent solutions having different pH values and the fluorescence was measured.
Compound 6 (0.1 g each) obtained in Synthesis Example 2 was placed in three test tubes, and 10 ml each of deionized water and one drop of weakly acidic “Biore” (liquid detergent of Kao Corporation), “COOP K Soft” (liquid detergent of Cope Green K.K.) or “My Pet” (liquid detergent of Kao Corporation) were added. Aqueous solutions of Compound 6 were obtained by dissolving the compound using ultrasonic irradiation. The solutions were irradiated with blue light (450 nm) using a full color LED flash light (MFL 143-FB manufactured by Anteya Technology Corporation). The fluorescent color observed was orange in a weakly acidic environment (pH=5), red in a neutral environment […] and crimson in a weakly alkaline environment (pH=8).

[8] = Comparative Example 1, blue diode laser 405 nm, FIG. 11
[9] = 1,4-Dioxane, solvent polarity ET(30) 36.0
[10] = Acetone, solvent polarity ET(30) 42.2
[11] = DMSO, solvent polarity ET(30) 45.1

Structure (SMILES) | Cell staining pattern [1] | Maximum absorption wavelength [5, 9] | Maximum absorption wavelength [5, 10] | Maximum absorption wavelength [5, 11] | Molar absorption coefficient ([5]; 1,4-Dioxane, ET(30) 36.0) | Molar absorption coefficient ([5]; Acetone, ET(30) 42.2) | Molar absorption coefficient ([5]; DMSO, ET(30) 45.1) | Maximum fluorescence emission wavelength ([6]; 1,4-Dioxane, ET(30) 36.0) | Maximum fluorescence emission wavelength ([6]; Acetone, ET(30) 42.2) | Maximum fluorescence emission wavelength ([6]; DMSO, ET(30) 45.1) | also measured
CCCCCCCCN(CCCCCCCC)c1ccc(-c2ccc(-c3cc[n+](C)cc3)s2)cc1.O=S(=O)([O-])C(F)(F)F [Compound 23] | the entire cell was stained with fluorescence but the fluorescence intensity was low and the stain was not even | – | – | – | – | – | – | – | – | – | –
CCCCCCN(CCCCCC)c1ccc(-c2ccc(-c3cc[n+](C)cc3)s2)cc1.F[B-](F)(F)F [Compound 7, 4-[5-(4-dihexylamino)phenyl]thiophene-2-yl-1-methylpyridinium tetrafluoroborate] | – | – | – | – | – | – | – | – | – | – | Cell staining ([2]; 2×10^−5 M in DMSO, five minutes, room temperature, argon laser 488 nm, FIG. 7): cell membranes of colon cancer cells T84 are stained; Laser caused fading ([2]; confocal laser microscope, conditions of the experiment): did not undergo laser caused fading
CCN(CC)c1ccc(-c2ccc(-c3cc[n+](C)cc3)s2)cc1.O=S(=O)([O-])C(F)(F)F [Compound 21] | Entire cells were stained with fluorescence | – | – | – | – | – | – | – | – | – | –
CCCCCCN(CCCCCC)c1ccc(-c2ccc(-c3cc[n+](C)cc3)s2)cc1.O=S(=O)([O-])C(F)(F)F [Compound 10, {4-[5-(4-dihexylamino)phenyl]thiophene-2-yl}-1-methylpyridinium trifluoromethane sulfonate] | the cell membrane and mitochondria were selectively stained | – | – | – | – | – | – | – | – | – | Fluorescence wavelength response to local environment [3]: respond sensitively to the local environment in terms of fluorescence wavelength; Emitted light color by location in cell [4]: different for the cell membrane (1 in the figure) and mitochondria
CCCCN(CCCC)c1ccc(-c2ccc(-c3cc[n+](C)cc3)s2)cc1.O=S(=O)([O-])C(F)(F)F [Compound 22, 4-[5-(4-dibutylamino)phenyl]thiophene-2-O-1-methylpyridinium trifluoromethane sulfonate] | the cell membrane and mitochondria were selectively stained | – | – | – | – | – | – | – | – | – | –
CN(C)c1ccc(-c2ccc(-c3ccc(S(=O)(=O)OCC(C)(C)C)cc3)s2)cc1 [reference compound] | – | – | – | – | – | – | – | – | – | – | Cell staining [2, 8]: the cell membrane was selectively labeled with fluorescence; Change of fluorescence wavelength between cell sections [2, 8]: remained almost unchanged
CCCCCCN(CCCCCC)c1ccc(-c2ccc(-c3ccncc3)s2)cc1 [Compound 3, N,N-dihexyl-4-[5-(pyridine-4-yl)thiophene-2-yl]aniline] | – | 389 nm | 391 nm | 401 nm | 31,000 mol^−1cm^−1 | 33,000 mol^−1cm^−1 | 32,000 mol^−1cm^−1 | 467 nm | 507 nm | 522 nm | –
CCCCCCN(CCCCCC)c1ccc(-c2ccc(-c3ccccn3)s2)cc1 [Compound 4, N,N-dihexyl-4-[5-(pyridine-2-yl)thiophene-2-yl]aniline] | – | 387 nm | 385 nm | 395 nm | 33,000 mol^−1cm^−1 | 33,000 mol^−1cm^−1 | 31,000 mol^−1cm^−1 | 459 nm | 488 nm | 507 nm | –
CCCCCCN(CCCCCC)c1ccc(-c2ccc(-c3cc[n+](C)cc3)s2)cc1.[I-] [Compound 6, 4-[5-(4-dihexylamino)phenyl]thiophene-2-yl-1-methylpyridinium iodide] | – | 490 nm | 501 nm | 497 nm | 26,000 mol^−1cm^−1 | 36,000 mol^−1cm^−1 | 36,000 mol^−1cm^−1 | 568 nm | 639 nm | 653 nm | Excitation by commonly encountered argon lasers (488 nm) [5]: could be efficiently excited; Absorption and emission wavelengths, compared ([6]; versus Compounds 3 to 5): significantly longer absorption and emission wavelengths than Compounds 3 to 5; Fluorescent color observed ([7]; neutral environment (pH=6)): red; Fluorescent color observed ([7]; weakly acidic environment (pH=5)): orange; Fluorescent color observed ([7]; weakly alkaline environment (pH=8)): crimson
CCCCCCN(CCCCCC)c1ccc(-c2ccc(-c3ncccn3)s2)cc1 [Compound 5, N,N-dihexyl-4-[5-(pyrimidine-2-yl)thiophene-2-yl]aniline] | – | 395 nm | 395 nm | 406 nm | 33,000 mol^−1cm^−1 | 33,000 mol^−1cm^−1 | 31,000 mol^−1cm^−1 | 472 nm | 507 nm | 522 nm | –
